Common to all, as to type: cell-based
One test relates to AR / CBP ternary complex. The test is described as follows: Ternary complex formation assay (sandwich ELISA, AR capture / CBP detection) in VCaP cell lysates. To be noted: 1.5 hours treatment, sandwich ELISA (AR capture, CBP or p300 detection). In a few lines:
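VCaP cells (50K/well, 5% charcoal-stripped FBS, ≥3 days) treated with bifunctional compound for 1.5 h, then lysed 30 min at 4 °C. AR captured on anti-AR (AR 441) plates; bound CBP or p300 detected by rabbit mAb plus HRP secondary. QuantaRed chemifluorescence read at ex 570/em 585, immediately and at 5 and 15 min.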
(ELISA stands for enzyme-linked immunosorbent assay.)

A further test relates to HEK-293 cells. Put plainly: HEK-293 growth inhibition assay. To be noted: 3 days, CTG. A digest of the protocol:
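HEK-293 cells plated 24 hours before compound treatment, then exposed for 3 days at 37°C/5% CO2. Viability by CellTiter-Glo luminescence after 20 minutes at room temperature. IC50 from RLU versus concentration via 4-parameter logistic nonlinear regression.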

In another test the test system is VCaP cells. Put plainly: VCaP growth inhibition assay. To be noted: 30 pM R1881, 9 days, CTG. In a few lines: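 VCaP cells in phenol red-free DMEM/5% CSS, pre-incubated 72 h, then stimulated with R1881 (final 30 pM) and treated with 1:5 serial dilutions (final 100 nM to 10 fM) for 9 days at 37 °C. Viability by CellTiter-Glo luminescence; IC50 from 4-parameter logistic fit of RLU vs concentration.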

By EC50 is commonly meant the midpoint of the concentration-response curve. Read a low EC50 as higher potency in that assay. As usually defined, the IC50 is the concentration that gives 50% inhibition.

Where only a bound is given, the exact number is not on record here.

Take `CNC(=O)N1CCc2c(c(N3CCCc4cc(-c5cnn(C)c5)c(C(F)F)cc43)nn2C2CCN(C(=O)COC3CCN(c4ncc(C(=O)NC5C(C)(C)C(Oc6ccc(C#N)c(Cl)c6)C5(C)C)cn4)CC3)CC2)C1` (stereo not drawn) [Compound 100, 1-[1-[2-[[1-[5-[[3-(3-chloro-4-cyano-phenoxy)-2,2,4,4-tetramethyl-cyclobutyl]carbamoyl]pyrimidin-2-yl]-4-piperidyl]oxy]acetyl]-4-piperidyl]-3-[7-(difluoromethyl)-6-(1-methylpyrazol-4-yl)-3,4-dihydro-2H-quinolin-1-yl]-N-methyl-6,7-dihydro-4H-pyrazolo[4,3-c]pyridine-5-carboxamide]: the EC50 with AR / CBP ternary complex is under 1 nM. The IC50 is over 10000 nM in the test on HEK-293 cells and at most 0.1 nM in the test with VCaP cells.
With `CNC(=O)N1CCc2c(c(N3CCCc4cc(-c5cnn(C)c5)c(C(F)F)cc43)nn2C2CCN(C(=O)COCCOC3CCN(c4ncc(C(=O)NC5C(C)(C)C(Oc6ccc(C#N)c(Cl)c6)C5(C)C)cn4)CC3)CC2)C1` (stereo not drawn) [Compound 98, 1-[1-[2-[2-[[1-[5-[[3-(3-chloro-4-cyano-phenoxy)-2,2,4,4-tetramethyl-cyclobutyl]carbamoyl]pyrimidin-2-yl]-4-piperidyl]oxy]ethoxy]acetyl]-4-piperidyl]-3-[7-(difluoromethyl)-6-(1-methylpyrazol-4-yl)-3,4-dihydro-2H-quinolin-1-yl]-N-methyl-6,7-dihydro-4H-pyrazolo[4,3-c]pyridine-5-carboxamide], the EC50 in the test with AR / CBP ternary complex was under 1 nM. Also, the IC50 in the test with HEK-293 cells was over 10000 nM; in the test with VCaP cells, at most 0.1 nM.
On the same counts, the results for `CC(=O)N1CCc2c(c(N3CCCc4cc(-c5cnn(C)c5)c(C(F)F)cc43)nn2C2CCN(CC3C(C)CN(c4ncc(C(=O)NC5C(C)(C)C(Oc6ccc(C#N)c(Cl)c6)C5(C)C)cn4)CC3C)CC2)C1` (stereo not drawn) [Compound 350, 2-[4-[[4-[5-acetyl-3-[7-(difluoromethyl)-6-(1-methylpyrazol-4-yl)-3,4-dihydro-2H-quinolin-1-yl]-6,7-dihydro-4H-pyrazolo[4,3-c]pyridin-1-yl]-1-piperidyl]methyl]-3,5-dimethyl-1-piperidyl]-N-[3-(3-chloro-4-cyano-phenoxy)-2,2,4,4-tetramethyl-cyclobutyl]pyrimidine-5-carboxamide] are under 1 nM, over 1000 nM and at most 0.1 nM.
On the same counts, the results for `CNC(=O)N1CCc2c(c(N3CCCc4cc(-c5cnn(C)c5)c(C(F)F)cc43)nn2C2CCN(C(=O)COCC3CCN(c4ncc(C(=O)NC5C(C)(C)C(Oc6ccc(C#N)c(Cl)c6)C5(C)C)cn4)CC3)CC2)C1` (stereo not drawn) [Compound 107, 1-[1-[2-[[1-[5-[[3-(3-chloro-4-cyano-phenoxy)-2,2,4,4-tetramethyl-cyclobutyl]carbamoyl]pyrimidin-2-yl]-4-piperidyl]methoxy]acetyl]-4-piperidyl]-3-[7-(difluoromethyl)-6-(1-methylpyrazol-4-yl)-3,4-dihydro-2H-quinolin-1-yl]-N-methyl-6,7-dihydro-4H-pyrazolo[4,3-c] pyridine-5-carboxamide] are under 1 nM, over 10000 nM and at most 0.1 nM.
On the same counts, the results for `COc1cc(OC2C(C)(C)C(NC(=O)c3cnc(N4CCC(CN5CCC(n6nc(N7CCCc8cc(-c9cnn(C)c9)c(C(F)F)cc87)c7c6CCN(C(C)=O)C7)CC5)C(C)(C)C4)nc3)C2(C)C)ccc1C#N` (stereo not drawn) [Compound 360, 2-[4-[[4-[5-acetyl-3-[7-(difluoromethyl)-6-(1-methylpyrazol-4-yl)-3,4-dihydro-2H-quinolin-1-yl]-6,7-dihydro-4H-pyrazolo[4,3-c]pyridin-1-yl]-1-piperidyl]methyl]-3,3-dimethyl-1-piperidyl]-N-[3-(4-cyano-3-methoxy-phenoxy)-2,2,4,4-tetramethyl-cyclobutyl]pyrimidine-5-carboxamide] are under 1 nM, over 1000 nM and at most 0.1 nM.

Source of the values: patent US20250129070A1, “BIFUNCTIONAL ANDROGEN RECEPTOR COMPOUNDS” (priority 2023, published 2025).
